Experimental findings from US20120053211A1, “TREATMENT OF PANCREATIC CANCER” (ARDEA BIOSCIENCES, INC., priority 2009, published 2012) are described below.

Read-outs that look alike come from different tables or passages of the source.

Test [1] has as its system human pancreatic cancer cell line BxPC3. Nature of the test: In vitro activity in human pancreatic cancer cell line BxPC3. It counts as cell-based. The following applies: read-out: EC50 (nM) (±standard deviation). As for the experimental part: The in vitro activity of compound A was determined in the human pancreatic cancer cell line BxPC3 (normal […] status). EC50 values were determined (in 1% FBS and with 45 mg/mL has), as follows

In test [2] the test system is tumor. Nature of the test: Tumor volume following administration of compound A (FIG. 3, FIG. 4). It counts as in vivo.

The EC50 is the concentration at which the effect is half-maximal. As for `COc1cc(F)c(F)c(Nc2ccc(I)cc2F)c1NS(=O)(=O)C1(C[C@H](O)CO)CC1` [Compound A, (S)-N-(3,4-difluoro-2-(2-fluoro-4-iodophenylamino)-6-methoxyphenyl)-1-(2,3-dihydroxypropyl)cyclopropane-1-sulfonamide], the EC50 in test [1] (BXPC-3, BxPC3, 1% FBS) is 15.8 ± 2.4 nM; in test [1] (BXPC-3, BxPC3, +45 mg/mL hSA), 207 ± 29 nM. The “tumor volume as a function of time” value in test [2] (FIG. 3) and in test [2] (FIG. 4) was “decrease in tumor volume” each time.
